Eleven compounds from patent US11285227B2, “Trifunctional constructs with tunablepharmacokinetics useful in imaging and anti-tumor therapies” (CORNELL UNIVERSITY, priority 2017, dated 2022) can be followed below.

For orientation: IC50 means the concentration that inhibits the measured activity by half.

Where two headings read alike, the source gives them in different places. Marks after values point to notes of the source that are not given here.

One data set has as its target PSMA on LNCaP cells (Homo sapiens, UniProt Q04609). In words: Multi-concentration competitive binding assay against 99mTc-MIP-1427 (Section 1.3). Further details: host or cells: LNCaP.
Data set [1] deals with LNCaP xenograft tumor-bearing mice. The data set is described as follows: Biodistribution studies of 177Lu-labeled ligands in LNCaP xenograft mice. Conditions: for Max. Tumor Uptake: corresponding 177Lu-labeled compound. In kind it is in vivo. On the procedure:
(§1) Inoculation of mice with xenografts: All animal studies were approved by the Institutional Animal Care and Use Committee of Weill Cornell Medicine and were undertaken in accordance with the guidelines set forth by the USPHS Policy on Humane Care and Use of Laboratory Animals. Animals were housed under standard conditions in approved facilities with 12 h light/dark cycles. Food and water was provided ad libitum throughout the course of the studies. Hairless male nu/nu mice were purchased from the Jackson Laboratory. For inoculation in mice, LNCaP cells were suspended at 4×10^7 cells/mL in a 1:1 mixture of PBS:Matrigel (BD Biosciences). Each mouse was injected in the left flank with 0.25 mL of the cell suspension. The mice were imaged when the tumors reached approximately 200-400 mm^3, while biodistributions were conducted when tumors were in the range 100-400 mm^3.
Biodistribution studies of ^177Lu-labeled ligands in LNCaP xenograft mice: LNCaP xenograft tumor-bearing mice (5 per time point per compound) were injected intravenously with a bolus injection of 348-851 kBq (9.4-23 μCi) and 37-50 ng (23-25 pmol) of each ligand. The mice were sacrificed at 4, 24 and 96 h post injection. A blood sample was removed, and a full biodistribution study was conducted on the following organs (with contents): heart, lungs, liver, small intestine, large intestine, stomach, spleen, pancreas, kidneys, muscle, bone and tumor. Tissues were weighed and counted on a 2470 Wizard^2 Automatic Gamma Counter (Perkin Elmer). Counts were corrected for decay and for activity injected, and tissue uptake was expressed as percent injected dose per gram (% ID/g). Standard error measurement was calculated for each data point.

The conditions of data set [2]: C57BL/6 mice, tail vein, 10-50 kBq; 15 min, 1 h, 5 h. Here is the method: C57BL/6 mice were injected via tail vein with 10-50 kBq of each radiometal complex and were sacrificed after 15 min, 1 h, or 5 h.
The subject of data set [3] is LNCaP xenograft tumor-bearing mice. The data set is described as follows: µPET/CT imaging of 66Ga-RPS ligands in LNCaP xenograft mice. The data set is classed as in vivo. Here is the method:
as §1
Imaging of ^66Ga-RPS ligands in LNCaP xenograft mice: LNCaP xenograft tumor-bearing mice (2-3 per compound) injected intravenously with a bolus injection of 0.56-5.4 MBq (15-145 μCi) of the ^66Ga-labeled ligand. The specific activity of the tracers was in the range 14.8-47 MBq/pmol (0.4-1.27 mCi/pmol). The mice were imaged using μPET/CT (Inveon™; Siemens Medical Solutions, Inc.) at 1, 3, 6 and 24 h post-injection following inhalation anesthetization with isoflurane. Total acquisition time was 30 min for the 1 h, 3 h and 6 h images, and 60 min for 24 h time point. A CT scan was obtained immediately before the acquisition for both anatomical co-registration and attenuation correction. Images were reconstructed using the Inveon™ software supplied by the vendor. Image-derived tumor and kidney uptake was estimated by comparison to a 10% injected dose per cubic mm (% ID/mm^3) standard introduced into the imaging field of view. The standard was prepared by dilution of 10% of the injected activity to 1 mL with saline. Volumes of interest (VOIs) were drawn with the aid of the CT and confirmed by PET. The contents of the VOIs were integrated and the calculated counts were converted to % ID/mm^3 by direct comparison to the aforementioned standard following correction for activity injected.

Data set [4] has the same test system. In words: Dosimetry (dose integrals from 177Lu biodistribution). Conditions: over the 96 h. The data set is classed as in vivo. Here is the method:
Dosimetry: The dosimetry was calculated assuming a linear interpolation between the three time points. The average injected dose per organ was calculated by using the average of the activity and organ weights of the mice at that time point. Intermediate time points at every 4 hours were generated using the linear approximation and all time points were corrected for decay during the time interval between points. These curves were integrated using a trapezoidal approximation and the sum used to determine the residence time.

The mark [5] stands for this setting: non-labeled, metal-free ligands, competitive binding in LNCaP cells vs 1 nM 99mTc-MIP-1427, 2 h, read-out: IC50.

Sequence of PSMA on LNCaP cells (Q04609 whole entry): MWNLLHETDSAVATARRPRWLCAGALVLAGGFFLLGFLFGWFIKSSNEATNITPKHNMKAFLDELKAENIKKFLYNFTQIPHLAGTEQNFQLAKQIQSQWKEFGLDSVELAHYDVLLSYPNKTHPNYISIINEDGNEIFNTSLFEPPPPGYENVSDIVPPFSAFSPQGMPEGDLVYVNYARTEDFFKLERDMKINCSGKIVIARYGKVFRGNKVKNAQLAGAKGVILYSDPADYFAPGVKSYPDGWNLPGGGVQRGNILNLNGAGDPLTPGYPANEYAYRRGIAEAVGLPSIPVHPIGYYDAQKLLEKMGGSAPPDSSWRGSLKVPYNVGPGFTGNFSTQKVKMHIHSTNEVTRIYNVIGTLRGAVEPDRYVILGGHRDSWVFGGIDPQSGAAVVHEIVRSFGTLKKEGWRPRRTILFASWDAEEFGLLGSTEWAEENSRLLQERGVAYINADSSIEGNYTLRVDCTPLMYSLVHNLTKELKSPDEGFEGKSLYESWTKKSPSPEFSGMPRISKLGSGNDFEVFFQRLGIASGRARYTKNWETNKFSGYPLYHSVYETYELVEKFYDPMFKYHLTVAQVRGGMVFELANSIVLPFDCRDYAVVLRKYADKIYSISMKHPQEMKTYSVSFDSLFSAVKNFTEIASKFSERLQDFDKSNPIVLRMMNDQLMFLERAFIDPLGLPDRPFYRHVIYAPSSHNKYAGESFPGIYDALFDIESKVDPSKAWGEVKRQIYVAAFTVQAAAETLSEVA
Procedure for PSMA on LNCaP cells: Cell Culture: The PSMA expressing human prostate cancer cell line, LNCaP, was obtained from the American Type Culture Collection. Cell culture supplies were obtained from Invitrogen unless otherwise noted. LNCaP cells were maintained in RPMI-1640 medium supplemented with 10% fetal bovine serum (Hyclone), 4 mM L-glutamine, 1 mM sodium pyruvate, 10 mM N-2-hydroxyethylpiperazine-N-2-ethanesulfonic acid (HEPES), 2.5 mg/mL D-glucose, and 50 μg/mL gentamicin in a humidified incubator at 37° C./5% CO2. Cells were removed from flasks for passage or for transfer to 12-well assay plates by incubating them with 0.25% trypsin/ethylenediaminetetraacetic acid (EDTA).
In vitro determination of IC50: IC50 values of the non-labeled, metal-free ligands were determined by screening in a multi-concentration competitive binding assay against ^99mTc-((7S,12S,16S)-1-(1-(carboxymethyl)-1H-imidazol-2-yl)-2-((1-(carboxymethyl)-1H-imidazol-2-yl)methyl)-9,14-dioxo-2,8,13,15-tetraazaoctadecane-7,12,16,18-tetracarboxylic acid technetium tricarbonyl complex) (^99mTc-MIP-1427) for binding to PSMA on LNCaP cells, according to previously described methods [18,19] with small modifications. Briefly, LNCaP cells were plated 48 h prior to the experiment to achieve a density of approximately 5×10^5 cells/well (in triplicate) in RPMI-1640 medium supplemented with 0.25% bovine serum albumin. The cells were incubated for 2 h with 1 nM ^99mTc-MIP-1427 in serum-free RPMI-1640 medium in the presence of 0.001-10,000 nM test compounds. Radioactive incubation media was then removed by pipette and the cells were washed twice using 1 mL ice-cold PBS 1× solution. Cells were harvested from the plates following treatment with 1 mL 1M NaOH and transferred to tubes for radioactive counting using a 2470 Wizard^2 Automatic Gamma Counter (Perkin Elmer). Standard solutions (10% of activity added to each well) were prepared to enable decay correction. IC50 values were determined by fitting the data points to a sigmoidal Hills1 curve in Origin software.

`O=C(O)CCC(NC(=O)NC(CCCCNC(=O)C(Cc1ccc2ccccc2c1)NC(=O)C1CCC(CNC(=O)CN2CCN(CC(=O)O)CCN(CC(=O)O)CCN(CC(=O)O)CC2)CC1)C(=O)O)C(=O)O` (stereo not drawn) [PSMA-617, reference compound]: the IC50 at PSMA on LNCaP cells (setting [5]) was 6.6 ± 0.7 nM. Besides, the “Max. Tumor Uptake” value in data set [1] (a = 4 h p.i.) stood at 14.4 ± 2.5 % ID/g.
On to `O=C(O)CC[C@H](NC(=O)N[C@@H](CCCCNC(=O)Nc1cccc(-c2cn(CCOCCOCCOCCOCCC(=O)N[C@@H](CCCCNC(=S)Nc3ccc(CC4CN(CC(=O)O)CCN(CC(=O)O)CCN(CC(=O)O)CCN4CC(=O)O)cc3)C(=O)N[C@@H](CCCCNC(=O)Cc3ccc(I)cc3)C(=O)O)nn2)c1)C(=O)O)C(=O)O` (stereo partly drawn) [RPS-061, (((1S)-1-carboxy-5-(3-(3-(1-((17S,20S)-20-carboxy-27-(4-iodophenyl)-15,18,26-trioxo-17-(4-(3-(4-((1,4,7,10-tetrakis(carboxymethyl)-1,4,7,10-tetraazacyclododecan-2-yl)methyl)phenyl)thioureido)butyl)-3,6,9,12-tetraoxa-16,19,25-triazaheptacosyl)-1H-1,2,3-triazol-4-yl)phenyl)ureido)pentyl)carbamoyl)-L-glutamic acid], for which the IC50 at PSMA on LNCaP cells (setting [5]) came to 4.1 nM. The “Max. Tumor Uptake” value in data set [1] (a = 4 h p.i.) amounted to 20.4 % ID/g.
`O=C(O)CC[C@H](NC(=O)N[C@@H](CCCCNC(=O)Nc1cccc(-c2cn(CCOCCOCCOCCC(=O)N[C@@H](CCCCNC(=S)Nc3ccc(CC4CN(CC(=O)O)CCN(CC(=O)O)CCN(CC(=O)O)CCN4CC(=O)O)cc3)C(=O)N[C@@H](CCCCNC(=O)Cc3ccc(I)cc3)C(=O)O)nn2)c1)C(=O)O)C(=O)O` (stereo partly drawn) [RPS-063, (((1S)-1-carboxy-5-(3-(3-(1-((14S,17S)-17-carboxy-24-(4-iodophenyl)-12,15,23-trioxo-14-(4-(3-(4-((1,4,7,10-tetrakis(carboxymethyl)-1,4,7,10-tetraazacyclododecan-2-yl)methyl)phenyl)thioureido)butyl)-3,6,9-trioxa-13,16,22-triazatetracosyl)-1H-1,2,3-triazol-4-yl)phenyl)ureido)pentyl)carbamoyl)-L-glutamic acid]: the concentration for half-maximal inhibition (IC50) at PSMA on LNCaP cells worked out at 1.5 ± 0.3 nM. For the same compound, the “Max. Tumor Uptake” value in data set [1] (a = 4 h p.i.) is 30.0 % ID/g.
Regarding `O=C(O)CC[C@H](NC(=O)N[C@@H](CCCCNC(=O)Nc1cccc(-c2cn(CCOCCOCCOCCOCCOCCOCCOCCOCCC(=O)N[C@@H](CCCCNC(=S)Nc3ccc(CC4CN(CC(=O)O)CCN(CC(=O)O)CCN(CC(=O)O)CCN4CC(=O)O)cc3)C(=O)N[C@@H](CCCCNC(=O)Cc3ccc(I)cc3)C(=O)O)nn2)c1)C(=O)O)C(=O)O` (stereo partly drawn) [RPS-066, (((1S)-1-carboxy-5-(3-(3-(1-((29S,32S)-32-carboxy-39-(4-iodophenyl)-27,30,38-trioxo-29-(4-(3-(4-((1,4,7,10-tetrakis(carboxymethyl)-1,4,7,10-tetraazacyclododecan-2-yl)methyl)phenyl)thioureido)butyl)-3,6,9,12,15,18,21,24-octaoxa-28,31,37-triazanonatriacontyl)-1H-1,2,3-triazol-4-yl)phenyl)ureido)pentyl)carbamoyl)-L-glutamic acid], the IC50 on PSMA on LNCaP cells (setting [5]) turned out to be 5.2 nM. For the same compound, the “Max. Tumor Uptake” value in data set [1] (a = 4 h p.i.) came to 18.7 % ID/g.
For the compound `O=C(O)CC[C@H](NC(=O)N[C@@H](CCCCNC(=O)Nc1cccc(-c2cnnn2CC(=O)N[C@@H](CCCCNC(=S)Nc2ccc(CC3CN(CC(=O)O)CCN(CC(=O)O)CCN(CC(=O)O)CCN3CC(=O)O)cc2)C(=O)N[C@@H](CCCCNC(=O)Cc2ccc(I)cc2)C(=O)O)c1)C(=O)O)C(=O)O` (stereo partly drawn) [RPS-068, (((1S)-1-carboxy-5-(3-(3-(1-(2-(((2S)-1-(((S)-1-carboxy-5-(2-(4-iodophenyl)acetamido)pentyl)amino)-1-oxo-6-(3-(4-((1,4,7,10-tetrakis(carboxymethyl)-1,4,7,10-tetraazacyclododecan-2-yl)methyl)phenyl)thioureido)hexan-2-yl)amino)-2-oxoethyl)-1H-1,2,3-triazol-5-yl)phenyl)ureido)pentyl)carbamoyl)-L-glutamic acid], on PSMA on LNCaP cells (setting [5]), the IC50 came to 2.1 ± 0.1 nM. Further, in data set [1] (b = 24 h p.i.), the “Max. Tumor Uptake” value was 26.9 ± 2.0^b % ID/g.
In the case of `O=C(O)CC[C@H](NC(=O)N[C@@H](CCCCNC(=O)Nc1cccc(-c2cn(CCOCCOCCOCCOCCOCCOCCC(=O)N[C@@H](CCCCNC(=S)Nc3ccc(CC4CN(CC(=O)O)CCN(CC(=O)O)CCN(CC(=O)O)CCN4CC(=O)O)cc3)C(=O)N[C@@H](CCCCNC(=O)Cc3ccc(I)cc3)C(=O)O)nn2)c1)C(=O)O)C(=O)O` (stereo partly drawn) [RPS-069, (((1S)-1-carboxy-5-(3-(3-(1-((23S,26S)-26-carboxy-33-(4-iodophenyl)-21,24,32-trioxo-23-(4-(3-(4-((1,4,7,10-tetrakis(carboxymethyl)-1,4,7,10-tetraazacyclododecan-2-yl)methyl)phenyl)thioureido)butyl)-3,6,9,12,15,18-hexaoxa-22,25,31-triazatritriacontyl)-1H-1,2,3-triazol-4-yl)phenyl)ureido)pentyl)carbamoyl)-L-glutamic acid], at PSMA on LNCaP cells (setting [5]), the 50% inhibitory concentration (IC50) worked out at 3.8 nM. In data set [1] (a = 4 h p.i.), the “Max. Tumor Uptake” value was determined as 17.0 % ID/g.
For the compound `O=C([O-])CN1CCN(CC(=O)[O-])CCN(CC(=O)[O-])CCN(CC(=O)[O-])CC1.[225Ac+3]` [[^225Ac(DOTA)]^−, reference compound], the “Biodistribution profile (clearance)” value in data set [2] was “appeared to clear more rapidly through the urine”.
For the compound `O=C([O-])c1cccc(CN2CCOCCOCCN(Cc3cccc(C(=O)[O-])n3)CCOCCOCC2)n1.[225Ac+3]` [[^225Ac(macropa)]^+], in data set [2], the “Biodistribution profile (clearance)” value was “rapidly cleared from mice, with very little activity measured in blood by 1 h post injection” and the “Organ accumulation / in vivo stability of the complex” value is reported as “did not accumulate in any organ”.
With `O=C(O)CCC(NC(=O)NC(CCCCNC(=O)C(Cc1ccc2ccccc2c1)NC(=O)C1CCC(CNC(=O)CN2CCN(CC(=O)O)CCN(CC(=O)O)CCN(CC(=O)O)CC2)CC1)C(=O)O)C(=O)O` (stereo not drawn) [^66Ga-PSMA-617, metal not drawn, reference compound], the “Tumor uptake (image-derived)” value in data set [3] (24 h post injection) is recorded as 1.1±0.4 % ID/cm^3. In data set [3] (maximum at 1 h post injection), the “Maximum tumor uptake (image-derived)” value worked out at 3.1±0.4 % ID/cm^3.
As for `O=C(O)CCC(NC(=O)NC(CCCCNC(=O)Nc1cccc(-c2cnnn2CC(=O)NC(CCCCNC(=S)Nc2ccc(CC3CN(CC(=O)O)CCN(CC(=O)O)CCN(CC(=O)O)CCN3CC(=O)O)cc2)C(=O)NC(CCCCNC(=O)Cc2ccc(I)cc2)C(=O)O)c1)C(=O)O)C(=O)O` (stereo not drawn) [^66Ga-RPS-068, metal not drawn], the “Kidney uptake (image-derived)” value in data set [3] (24 h post injection) was 1.9±0.3 % ID/cm^3. Further, the “Maximum tumor uptake (image-derived)” value in data set [3] (maximum at 3 h post injection) came out at 9.7±2.0 % ID/cm^3.
In data set [1] (4 h p.i.), `O=C(O)CCC(NC(=O)NC(CCCCNC(=O)C(Cc1ccc2ccccc2c1)NC(=O)C1CCC(CNC(=O)CN2CCN(CC(=O)O)CCN(CC(=O)O)CCN(CC(=O)O)CC2)CC1)C(=O)O)C(=O)O` (stereo not drawn) [^177Lu-PSMA-617, metal not drawn, reference compound] returned a Kidney uptake of 14.1±3.1 % ID/g and a Tumor uptake of 14.4±1.1 % ID/g. In data set [1] (96 h p.i.), the Tumor uptake is on record as 3.5±0.3 % ID/g and the Tumor-to-kidney ratio is given as 14.39±2.2. Besides, the “Ratio of tumor dose integral to kidney dose integral” value in data set [4] worked out at 1.95.
